Assay results reported in US10179164B2, “Method for inducing an immune response for treatment of cancer and autoimmune diseases or conditions” (priority 2011, dated 2019).

Tests used:
IL-12p70 = assay: Intracellular IL-12p70 flow cytometry of CD3- bone marrow cells; type: cell-based, mouse (C57BL/6); details: CD3- BM cells, PE-anti-IL-12p70
Description: CD3+ cells were removed from BM cells using the fluorescence activated cell sorter and then untreated or treated with JgD, gD or JH. Flow cytometric analysis of the sorted population confirmed the removal of CD3 positive cells. The CD3− BM cells were labeled with FIT C-anti-CD8 (Beckman Coulter (clone 53-6.7)), fixed with paraformaldehyde, permeabilized with saponin (Intraprep, Immunotech), labeled with PE-anti-IL-12p70 (Beckman Coulter) and then post fixed with paraformaldehyde prior to immunofluorescence analysis.

[1] = test system: C57BL/6 bone marrow cells (monocyte population); assay: Flow cytometry of CD11c and CD86 expression on peptide-treated bone marrow cells; type: cell-based, mouse (C57BL/6); details: BM monocyte population by light scatter, second day after treatment; for CD11c expression: PE-anti-CD11c, versus untreated; for CD86 expression: PE-anti-CD86, versus untreated
Description: Bone marrow (BM) cells were prepared. Briefly, the femurs and tibias were obtained from five C57BL/6 female mice, and the ends were removed to expose the hollow bone packed with marrow. BM cells were flushed from the bones with cold Hanks Balanced Salt Solution (HBSS) using a sterile disposable 22 g needle and pooled. Red blood cells (RBCs) were lysed using Tris-buffered ammonium chloride and resultant cells were washed 3 times in HBSS, BM cells were suspended in tissue culture medium (TCM) (RPMI 1640 with glutaminic plus […] PenStrep, 50 μM 2-mercaptoethanol, and 5% fetal calf serum) at approximately 5×10^6 cells/ml and incubated for 1 hour at 37° C. in a 5% CO2 atmosphere in plastic tissue culture flasks to remove adherent, mature macrophages. Decanted non-adherent cells were resuspended in TCM and 1.5×10^6 BM cells in 1 ml were placed into each well of a 24 well tissue culture plate (Falcon) and either left untreated or treated with […] of peptide J or JgD LEAPS™ heteroconjugate. After incubation for 48 hrs at 37° C., cells were viewed and photographed for changes in morphology, tissue culture supernatants were removed and the cells were prepared for flow cytometric analysis.
For analysis of CD11c and CD86 expression, untreated and peptide treated BM cells, prepared and treated as described above, were labeled with PE-anti-Cd11c or PE-anti CD86 (Beckman Coulter Fullerton, Calif.) At least […] were analyzed (Altra FACS, Beckman Coulter) using forward and side scatter parameters to limit (gating) the immunofluorescence analysis to cells of the size and granularity of monocytes and dendritic cells.
The monocyte population of BM cells, as defined by light scatter parameters, was analyzed on the second day after treatment with J, gD, JgD or JH.

[2] = test system: collagen induced arthritis (CIA) model in DBA/IJ mice; assay: Collagen induced arthritis (CIA) model, Arthritis Index; type: in vivo
Description: The following study is of CEL-2000 therapeutic vaccine for collagen induced arthritis (CIA) where the first step was to identify a good animal model for testing the vaccine, which is the collagen induced arthritis (CIA) model in young (6-7) week old male DBA/IJ mice. These mice received 2 injections of bovine collagen the first in complete Freund's adjuvant (CFA) on day 0 and then 3 weeks later on day 21, in Incomplete CFA. After the second collagen injection, the mice were evaluated daily for any joint swelling or redness. Each of the paws was scored on a 4 point scale (Arthritis Index (AI) with respect to the number of digits with symptoms and the thickness of the paw measured, at least 3-4 times a week. Each mouse was weighed weekly.
When significant disease is noted, usually about day 28, the mice are grouped (n=8) with a range of scores between 1 and 6 and group mean of 2.5 to 3. At this point the therapy begins according to protocol. Controls include groups with induced disease but no therapy and groups of healthy mice without induced disease. A therapy control of Enbrel® (3 mg/kg, every other day) was included. Over the 28-day course of study, the outcomes of different CEL-2000 and CEL-2003 treatment schedules were compared with Enbrel. In this study, CEL-200 treatment with 2 doses of 33 or 100 nmol were given subcutaneously on days 0 and 7 or on days 0 and 14. CEL-2003 was used at one dose of […] on days 0 and 14. […] The AI score for each paw (4 paws total) were added for each group and reported on FIG. 4.

| Sequence | IL-12p70 expressing cells (IL-12p70) | CD11c expression [1] | CD86 expression [1] | progression of arthritis disease (AI score) ([2]; 100 nmol dose (3x treatment) subcutaneously on days 0 and 7, 28-day study) | progression of arthritis disease compared with Enbrel ([2]; 2 doses of 33 or 100 nmol s.c. on days 0 and 7 or 0 and 14 (most regimes), Enbrel 3 mg/kg every other day for 28 days) | Student t test comparison of treatment groups with Enbrel ([2]; days 7, 14 and 21, 3x dose days 0 and 14, 3x days 0 and 7, 1x days 0 and 7 or 0 and 14) |
| --- | --- | --- | --- | --- | --- | --- |
| DLLKNGERIEKVE (listed as Homo sapiens) [J-ICBL, ICBL derived from amino acids 38-50 of the β-2-microglobulin chain of the MHC 1 molecule] | no significant increase | no discernible change | no discernible change |  |  |  |
| DLLKNGERIEKVEGGGSLKMADPNRFRGKDLP [JgD] |  | expressed | expressed |  |  |  |
| SLKMADPNRFRGKDLP [gD] |  | no discernible change | no discernible change |  |  |  |
| DLLKNGERIEKVEGGGTGGKPGIAGFKGEQGPKGEP (Heteroconjugate construct) [CEL-2000, Peptide J linked to the human type II collagen peptide 254-273 through a triglycine linker] |  |  |  | appeared to limit the progression of disease throughout the experimental period | at least as good as those of mice treated with Enbrel® | slightly better than Embrel |
